Results published in PubChem BioAssay (NCI).
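1) Cells in 96-well plates. 2) Compound, 48 h, 5 concentrations. 3) Linear interpolation between surrounding doses. 4) Unreached endpoint = highest concentration. At the GI50, growth is halved. TGI is the concentration that stops growth completely.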

Key:
Test in all cases: NCI anticancer screen, dose series, 48 h
[1] = system: DU-145 prostate
[2] = system: HS 578T breast
[3] = system: A498 renal
[4] = system: T-47D breast
[5] = system: BT-549 breast
[6] = system: MCF7 breast
[7] = system: 786-0 renal
[8] = system: MDA-MB-231 breast
[9] = system: MDA-MB-435
[10] = system: SNB-78 CNS
[11] = system: DMS 114 small cell lung
[12] = system: HOP-18 NSCLC
[13] = system: XF 498 CNS

**Q.** `Cn1ncc2c(Nc3cccc(Cl)c3)nc(Nc3cccc(Cl)c3)nc21` was tested. Which TGI [1] did it give?
**A.** 40 µM

**Q.** What about the TGI [2] of the same molecule?
**A.** 43.9 µM

**Q.** What about the TGI [3] of the same molecule?
**A.** 28.9 µM

**Q.** What about the TGI [4] of the same molecule?
**A.** 37 µM

**Q.** And the TGI [5]?
**A.** 59 µM

**Q.** What about the TGI [6] of the same molecule?
**A.** 32.1 µM

**Q.** And the TGI [7]?
**A.** 4.84 µM

**Q.** And the TGI [8]?
**A.** > 68.3 µM

**Q.** And the TGI [9]?
**A.** > 57.6 µM

**Q.** `CCOC(=O)C(Cc1cn(C(C)=O)c2ccccc12)P(=O)(OCC)OCC` (stereo not drawn) was tested. Which TGI [1] did it give?
**A.** > 100 µM

**Q.** What about the TGI [2] of the same molecule?
**A.** > 100 µM

**Q.** What about the TGI [4] of the same molecule?
**A.** > 100 µM

**Q.** What about the TGI [8] of the same molecule?
**A.** > 100 µM

**Q.** For `CC(C)C(=O)CC(c1ccc(Cl)cc1)N1N=C(C(C)C)CC1c1ccc(Cl)cc1` (stereo not drawn), which TGI [10] is on record?
**A.** > 100 µM

**Q.** And the TGI [11]?
**A.** > 100 µM

**Q.** `N#CCCN(CCC#N)c1ccc(/C=C(\NC(=O)c2cc([N+](=O)[O-])ccc2Cl)C(=O)Nc2ccccc2)cc1` was tested. Which TGI [12] did it give?
**A.** > 100 µM

**Q.** And the TGI [10]?
**A.** > 100 µM

**Q.** And the TGI [13]?
**A.** > 100 µM

**Q.** What about the TGI [11] of the same molecule?
**A.** > 100 µM

**Q.** What does the source list for `COc1ccc(C(O)(c2ccccc2)c2nccc3ccccc23)cc1` (stereo not drawn)?
**A.** TGI [1]: > 100 µM; TGI [2]: > 100 µM; TGI [4]: > 100 µM; TGI [5]: > 100 µM; TGI [6]: > 100 µM; TGI [7]: > 100 µM; TGI [8]: > 100 µM; TGI [9]: > 100 µM

**Q.** How did the TGI [12] turn out when `Cc1[nH]c(=O)[nH]c(=O)c1/C=C/C(=O)NC(CO)CS(=O)Cc1ccccc1` (stereo not drawn) was run?
**A.** > 300 µM

**Q.** What about the TGI [3] of the same molecule?
**A.** > 300 µM

**Q.** What about the TGI [6] of the same molecule?
**A.** > 300 µM

**Q.** And the TGI [10]?
**A.** > 300 µM

**Q.** And the TGI [13]?
**A.** > 300 µM

**Q.** And the TGI [11]?
**A.** > 300 µM

**Q.** Which results are given for `O=C(O)CCc1nc2ccccc2[nH]1`?
**A.** TGI [1]: > 100 µM; TGI [2]: > 100 µM; TGI [3]: > 100 µM; TGI [4]: > 100 µM; TGI [5]: > 100 µM; TGI [6]: > 100 µM; TGI [7]: > 100 µM; TGI [8]: > 100 µM; TGI [9]: > 100 µM

**Q.** Which TGI [1] does the source give for `C/C(=N\NC(=S)N(C)C)c1nc2ncccc2[nH]1` here?
**A.** > 100 µM

**Q.** And the TGI [2]?
**A.** 7.85 µM

**Q.** And the TGI [3]?
**A.** 69.5 µM

**Q.** What about the TGI [4] of the same molecule?
**A.** 14.7 µM

**Q.** And the TGI [5]?
**A.** 6.48 µM

**Q.** And the TGI [6]?
**A.** > 100 µM

**Q.** And the TGI [8]?
**A.** > 100 µM

**Q.** And the TGI [9]?
**A.** > 100 µM

**Q.** Which TGI [1] does the source give for `OCCCNc1ncnc2[nH]ncc12` here?
**A.** > 100 µM

**Q.** What about the TGI [2] of the same molecule?
**A.** > 100 µM

**Q.** And the TGI [3]?
**A.** > 100 µM

**Q.** And the TGI [4]?
**A.** > 100 µM

**Q.** What about the TGI [5] of the same molecule?
**A.** > 100 µM

**Q.** And the TGI [6]?
**A.** > 100 µM

**Q.** What about the TGI [7] of the same molecule?
**A.** > 100 µM

**Q.** What about the TGI [8] of the same molecule?
**A.** > 100 µM

**Q.** And the TGI [9]?
**A.** > 100 µM

**Q.** With `O=C(Nc1ccc(-n2cc(-c3ccncc3)c(-c3ccc(O)c(Cl)c3)n2)cc1)Nc1ccc(Cl)c(C(F)(F)F)c1` as the molecule, how does the GI50 [1] read?
**A.** 4.99 µM

**Q.** What about the TGI [1] of the same molecule?
**A.** 18 µM

**Q.** And the GI50 [2]?
**A.** 2.43 µM

**Q.** And the TGI [2]?
**A.** 13 µM

**Q.** And the GI50 [3]?
**A.** 14.8 µM

**Q.** What about the TGI [3] of the same molecule?
**A.** 34.3 µM

**Q.** And the GI50 [4]?
**A.** 8.61 µM

**Q.** What about the TGI [4] of the same molecule?
**A.** 64.1 µM

**Q.** What about the GI50 [6] of the same molecule?
**A.** 3.06 µM

**Q.** What about the TGI [6] of the same molecule?
**A.** 13.4 µM

**Q.** And the GI50 [8]?
**A.** 3.2 µM

**Q.** What about the TGI [8] of the same molecule?
**A.** 12.5 µM

**Q.** What about the GI50 [9] of the same molecule?
**A.** 2.89 µM

**Q.** And the TGI [9]?
**A.** 15.3 µM

**Q.** `Cn1ccc(C(=O)NCCN(CCNC(=O)c2ccn(C)c(=O)c2O)CCNC(=O)c2ccn(C)c(=O)c2O)c(O)c1=O` was tested. Which TGI [1] did it give?
**A.** > 100 µM

**Q.** What about the TGI [2] of the same molecule?
**A.** > 100 µM

**Q.** What about the TGI [3] of the same molecule?
**A.** > 100 µM

**Q.** What about the TGI [4] of the same molecule?
**A.** > 100 µM

**Q.** And the TGI [5]?
**A.** > 100 µM

**Q.** And the TGI [6]?
**A.** > 100 µM

**Q.** And the TGI [8]?
**A.** > 100 µM

**Q.** And the TGI [9]?
**A.** > 100 µM

**Q.** Which TGI [1] does the source give for `C/C(=N\NC(=S)NCCCCNC(=S)N/N=C(\C)c1ccccn1)c1ccccc1` here?
**A.** > 50 µM

**Q.** What about the TGI [2] of the same molecule?
**A.** > 100 µM

**Q.** And the TGI [3]?
**A.** 15 µM

**Q.** What about the TGI [5] of the same molecule?
**A.** 29.5 µM

**Q.** And the TGI [8]?
**A.** > 52.7 µM

**Q.** What about the TGI [9] of the same molecule?
**A.** > 100 µM

**Q.** How did the TGI [1] turn out when `Cc1c(Cl)nc(Cl)nc1Cl` was run?
**A.** 11.1 µM

**Q.** And the TGI [2]?
**A.** 8.31 µM

**Q.** And the TGI [3]?
**A.** 11.9 µM

**Q.** What about the TGI [4] of the same molecule?
**A.** 4.11 µM

**Q.** And the TGI [5]?
**A.** 10.2 µM

**Q.** What about the TGI [6] of the same molecule?
**A.** 2.6 µM

**Q.** And the TGI [7]?
**A.** 3.7 µM

**Q.** And the TGI [8]?
**A.** 2.99 µM

**Q.** And the TGI [9]?
**A.** 6.75 µM

**Q.** With `c1ccc(C(NC2=NCCO2)c2ccccc2)cc1` as the molecule, how does the TGI [1] read?
**A.** > 10 µM

**Q.** And the TGI [2]?
**A.** > 10 µM

**Q.** What about the TGI [3] of the same molecule?
**A.** > 10 µM

**Q.** And the TGI [4]?
**A.** > 10 µM

**Q.** And the TGI [6]?
**A.** > 10 µM

**Q.** What about the TGI [8] of the same molecule?
**A.** > 10 µM

**Q.** What about the TGI [9] of the same molecule?
**A.** > 10 µM

**Q.** How did the TGI [12] turn out when `CCCn1cc2c(SC)nc(SC)nc2n1` was run?
**A.** > 100 µM

**Q.** And the TGI [3]?
**A.** > 100 µM

**Q.** What about the TGI [10] of the same molecule?
**A.** > 100 µM

**Q.** And the TGI [13]?
**A.** > 100 µM

**Q.** What about the TGI [11] of the same molecule?
**A.** > 100 µM
